# According to ChEMBL document CHEMBL1125524, “Adenosine A1 antagonists. 2. Structure-activity relationships on diuretic activities and protective effects against acute renal failure” (J Med Chem, 1992):
# Legend:
# [1] = test system: Rattus norvegicus; assay: Serum creatinine concentration measured after intraperitoneal administration of 1 mg/kg of compound to rats(vehicle 4.70+/-0.17); assay type: functional
# [2] = test system: Rattus norvegicus; assay: Effect on urinary excretion potassium and sodium after oral administration of 25 mg/kg to rats(potassium and sodium excretion in control rat is 0.186+/-0.020); assay type: functional, Urine
# [3] = test system: Rattus norvegicus; assay: Percent inhibition of serum creatinine by the compound given as ratio of Cr value in treated to vehicle treated ones after intraperitoneal administration of 1 mg/kg of compound to rats(vehicle 4.70+/-0.17); assay type: functional; details: ip
# [4] = test system: Rattus norvegicus; assay: Ratio of urinary excretion value (urinary volume) in treated rats to that in control rats, at a peroral dose of 1.6 mg/Kg; assay type: functional, Urine
# [5] = test system: Rattus norvegicus; assay: Ratio of urinary excretion value (urinary volume) in treated rats to that in control rats, at a peroral dose of 25 mg/Kg; assay type: functional, Urine
# [6] = test system: Rattus norvegicus; assay: Urea nitrogen concentration measured after intraperitoneal administration of 1 mg/kg of compound to rats(vehicle 154.2+/-5.0); assay type: functional
# [7] = test system: Rattus norvegicus; assay: Ratio of sodium ion/potassium ion concentration in treated rats to that in control rats, at a peroral dose of 1.6 mg/Kg; assay type: functional
# [8] = test system: Rattus norvegicus; assay: Ratio of sodium ion/potassium ion concentration in treated rats to that in control rats, at a peroral dose of 25 mg/Kg; assay type: functional
# [9] = test system: Rattus norvegicus; assay: Ratio of urinary excretion value (Na+ concentration) in treated rats to that in control rats, at a peroral dose of 1.6 mg/Kg; assay type: functional, Urine
# [10] = test system: Rattus norvegicus; assay: Ratio of urinary excretion value (Na+ concentration) in treated rats to that in control rats, at a peroral dose of 25 mg/Kg; assay type: functional, Urine
# [11] = test system: Rattus norvegicus; assay: Ratio of urinary excretion value (Na+ concentration) in treated rats to that in control rats, at a peroral dose of 6.25 mg/Kg; assay type: functional, Urine
# [12] = test system: Rattus norvegicus; assay: Effect on urinary excretion potassium and sodium after oral administration of 1.6 mg/kg to rats(potassium and sodium excretion in control rat is 0.173+/-0.015); assay type: functional, Urine
# [13] = test system: Rattus norvegicus; assay: Oral diuretic activity was measured after oral administration of 1.6 mg/kg to rats(control volume is 0.93+/-0.03); assay type: functional, Urine
# [14] = test system: Rattus norvegicus; assay: Oral diuretic activity was measured after oral administration of 25 mg/kg to rats(control volume is 0.91+/-0.04); assay type: functional, Urine
# [15] = test system: Rattus norvegicus; assay: Percent inhibition of Urea nitrogen by the compound given as ratio of UN value in treated to vehicle treated ones after intraperitoneal administration of 1 mg/kg of compound to rats(vehicle 154.2+/-5.0); assay type: functional; details: ip
# [16] = test system: Rattus norvegicus; assay: Ratio of urinary excretion value (urinary volume) in treated rats to that in control rats, at a peroral dose of 6.25 mg/Kg; assay type: functional, Urine
# [17] = target: T1, Adenosine receptor A1 (Rattus norvegicus, UniProt P25099)
# T1 sequence (P25099 whole entry): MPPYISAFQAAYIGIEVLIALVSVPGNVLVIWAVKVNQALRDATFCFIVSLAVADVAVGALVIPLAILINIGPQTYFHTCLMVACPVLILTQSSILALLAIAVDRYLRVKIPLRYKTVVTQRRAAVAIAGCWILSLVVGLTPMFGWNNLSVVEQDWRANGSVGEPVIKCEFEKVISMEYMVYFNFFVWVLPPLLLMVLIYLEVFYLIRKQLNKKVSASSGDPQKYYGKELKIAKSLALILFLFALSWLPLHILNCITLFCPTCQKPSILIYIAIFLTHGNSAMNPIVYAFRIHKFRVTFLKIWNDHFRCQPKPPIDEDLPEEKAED
# Description: Binding affinity towards adenosine A1 receptor in rat cortical membranes using N6-[3H]cyclohexyladenosine as radioligand
# [18] = target: T2, Adenosine receptor A1 (Cavia porcellus, UniProt P47745)
# T2 sequence (P47745 whole entry): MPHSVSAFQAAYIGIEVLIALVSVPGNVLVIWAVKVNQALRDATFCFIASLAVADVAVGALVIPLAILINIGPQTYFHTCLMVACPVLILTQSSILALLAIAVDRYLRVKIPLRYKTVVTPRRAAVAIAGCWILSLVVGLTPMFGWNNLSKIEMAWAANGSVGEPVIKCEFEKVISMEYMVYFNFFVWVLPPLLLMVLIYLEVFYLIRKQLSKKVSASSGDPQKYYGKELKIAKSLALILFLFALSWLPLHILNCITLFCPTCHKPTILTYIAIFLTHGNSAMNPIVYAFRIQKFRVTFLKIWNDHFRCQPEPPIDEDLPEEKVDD
# Description: Binding affinity against adenosine A1 receptor in guinea pig forebrain membranes using N6-[3H]cyclohexyladenosine as radioligand
# [19] = target: T3, Adenosine A2 receptor (Rattus norvegicus, UniProt P29276+P30543)
# Description: Binding affinity towards adenosine A2 receptor in rat striatal membranes using N-[3H]-ethyladenosin-5''-uronamide as radioligand
# [20] = target: T3, Adenosine A2 receptor; remark: listed apart in the source
# [21] = test system: Rattus norvegicus; assay: Serum creatinine concentration measured after intraperitoneal administration of 1 mg/kg of compound to rats(vehicle 5.07+/-0.33); assay type: functional; details: 1 mg/kg
# [22] = test system: Rattus norvegicus; assay: Urea nitrogen concentration measured after intraperitoneal administration of 1 mg/kg of compound to rats(vehicle 195.8+/-14.4); assay type: functional; details: 1 mg/kg
# [23] = test system: Rattus norvegicus; assay: Effect on urinary excretion potassium and sodium after oral administration of 25 mg/kg to rats(potassium and sodium excretion in control rat is 0.180+/-0.024); assay type: functional, Urine
# [24] = test system: Rattus norvegicus; assay: Oral diuretic activity was measured after oral administration of 25 mg/kg to rats(control volume is 1.00+/-0.09); assay type: functional, Urine
# [25] = test system: Rattus norvegicus; assay: Percent inhibition of Urea nitrogen by the compound given as ratio of UN value in treated to vehicle treated ones after intraperitoneal administration of 1 mg/kg of compound to rats(vehicle 195.8+/-14.4); assay type: functional; details: 1 mg/kg
# [26] = organism: Rattus norvegicus; details: dose 1 mg/kg, route intraperitoneal
smiles,measurement,setting,value
FC(F)(F)c1nnc2c(NC3CCCC3)nc3ccc(Cl)cc3n12,Cr,[1],2.58 mg/dL
same,Na,[2],0.323 m equiv 6hr-1 100g-1
same,inhibition in vivo at 1 mg/kg,[3],45%
same,T/C,[4],1.15
same,T/C,[5],1.91
same,UN,[6],88.7 mg/dL
same,Na+/K+,[7],0.98
same,Na+/K+,[8],1.31
same,T/C,[9],1.22
same,T/C,[10],1.74
same,T/C,[11],1.82
same,Na,[12],0.212 m equiv 6hr-1 100g-1
same,Urine volume,[13],1.07 ml 6hr-1 100g-1
same,Urine volume,[14],1.74 ml 6hr-1 100g-1
same,inhibition in vivo at 1 mg/kg,[15],42%
same,T/C,[16],2.17
same,Ki,[17],5.5 nM
same,Ki,[18],36 nM
same,Ki,[19],2100 nM
same,Ki,[20],710 nM
CCCn1c(=O)c2nc(C3CC4CCC3C4)[nH]c2n(CCC)c1=O (stereo in doubt; 20),Cr,[21],2.54 mg/dL
same,UN,[22],98.8 mg/dL
same,T/C,[5],2.13
same,Na+/K+,[8],1.63
same,T/C,[10],2.06
same,T/C,[11],1.27
same,Na,[23],0.372 m equiv 6hr-1 100g-1
same,Urine volume,[24],2.13 ml 6hr-1 100g-1
same,Inhibition,[25],49%
same,T/C,[16],1.12
same,Ki,[20],290 nM
same,Inhibition,[26],50%
